# Results from patent publication US9833497B2, “Human originated EGF domain proteins and use of the same” (CHENGDU SOURCEBIO LIMITED-LIABILITY COMPANY, priority 2013, dated 2017).
# Experiments:
# Type in all cases: cell-based
# [1] = system: E. coli DH5α; experiment: Antibacterial activity: MIC and growth curve against E. coli DH5α in 96-well plate; conditions: minimal inhibitory concentration against E. coli DH5α; 96-well plate, 5×10^5 CFU/mL, 37° C., judged after 8 h
# Procedure, shortened: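 MIC taken as lowest protein level with no bacterial growth, tracked by A600 every 30 min during 37 °C, 175 rpm culture. Two-fold protein series 50-12.5 μg/mL final, triplicate wells, against 5×10^5 CFU/mL of LB-washed mid-log cells.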
# [2] = system: E. coli BL21; experiment: MIC against Gram-negative bacteria: E. coli BL21
# Procedure, shortened: (§1)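 MIC, the lowest recombinant protein concentration giving no bacterial growth, found by two-fold serial dilution of human EGF-domain proteins in triplicate. Inoculum 5×10^5 CFU/mL in LB from cultures at McFarland 0.5; plates incubated at 37° C, 175 rpm shaking.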
# [3] = system: Pseudomonas aeruginosa; experiment: MIC against Gram-negative bacteria: Pseudomonas aeruginosa; conditions: for MIC against P. aeruginosa: Pseudomonas aeruginosa
# Procedure, shortened: as §1
# [4] = system: Klebsiella pneumonia; experiment: MIC against Gram-negative bacteria: Klebsiella pneumonia; conditions: for MIC against K. pneumonia: Klebsiella pneumonia
# Procedure, shortened: as §1
# [5] = system: Enterobacter cloacae; experiment: MIC against Gram-negative bacteria: Enterobacter cloacae; conditions: for MIC against E. cloacae: Enterobacter cloacae
# Procedure, shortened: as §1
# [6] = system: Aeromonas hydrophila; experiment: MIC against Gram-negative bacteria: Aeromonas hydrophila; conditions: for MIC against A. hydrophila: Aeromonas hydrophila
# Procedure, shortened: as §1
# [7] = system: Citrobacter diversus; experiment: MIC against Gram-negative bacteria: Citrobacter diversus; conditions: for MIC against C. diversus: Citrobacter diversus
# Procedure, shortened: as §1
# [8] = system: Moraxella catarrhalis; experiment: MIC against Gram-negative bacteria: Moraxella catarrhalis; conditions: for MIC against M. catarrhalis: Moraxella catarrhalis
# Procedure, shortened: as §1
# [9] = system: Proteus mirabilis; experiment: MIC against Gram-negative bacteria: Proteus mirabilis; conditions: for MIC against P. mirabilis: Proteus mirabilis
# Procedure, shortened: as §1
# [10] = system: Proteus vulgaris; experiment: MIC against Gram-negative bacteria: Proteus vulgaris; conditions: for MIC against P. vulgaris: Proteus vulgaris
# Procedure, shortened: as §1
# [11] = system: Serratia marcescens; experiment: MIC against Gram-negative bacteria: Serratia marcescens; conditions: for MIC against S. marcescens: Serratia marcescens
# Procedure, shortened: as §1
# [12] = E. coli BL21, 96-well plate, 5×10^5 CFU/mL, 37° C., 10 h
# [13] = 96-well plate, 5×10^5 CFU/mL, 37° C., 10 h
# [14] = 10 h cultivation at 37° C., 5×10^5 CFU/mL, two-fold serial dilution
# [15] = 5×10^5 CFU/mL, 10 h cultivation at 37° C.
substance,measurement,setting,value
PRT1243 (FGESCEQQCPHCRHGEACEPDTGHCQRCDPGWLGPRCE; listed as Homo sapiens),MIC,[1],12.5 µg/mL
same,MIC against E. coli BL21,[2]; [12],50 µg/mL
same,MIC against P. aeruginosa,[3]; [13],12.5 µg/mL
same,MIC against K. pneumonia,[4]; [13],50 µg/mL
same,MIC against E. cloacae,[5]; [13],12.5 µg/mL
same,MIC against A. hydrophila,[6]; [13],50 µg/mL
same,MIC against C. diversus,[7]; [13],12.5 µg/mL
same,MIC against M. catarrhalis,[8]; [13],25 µg/mL
same,MIC against P. mirabilis,[9]; [13],50 µg/mL
same,MIC against P. vulgaris,[10]; [13],25 µg/mL
same,MIC against S. marcescens,[11]; [13],12.5 µg/mL
PRT168 (CLPGCDEQHGFCDKPGECKCRVGWQGRYC; listed as Homo sapiens),MIC,[1],25 µg/mL
same,MIC (μg/mL) E. coli BL21,"[2]; E. coli BL21, 10 h cultivation at 37° C., 5×10^5 CFU/mL",25 µg/mL
same,MIC (μg/mL) P. aeruginosa,"[3]; P. aeruginosa, 10 h cultivation at 37° C., 5×10^5 CFU/mL",12.5 µg/mL
same,MIC (μg/mL) K. pneumonia,"[4]; K. pneumonia, 10 h cultivation at 37° C., 5×10^5 CFU/mL",25 µg/mL
same,MIC (μg/mL) E. cloacae,"[5]; E. cloacae, 10 h cultivation at 37° C., 5×10^5 CFU/mL",12.5 µg/mL
same,MIC (μg/mL) A. hydrophila,"[6]; A. hydrophila, 10 h cultivation at 37° C., 5×10^5 CFU/mL",50 µg/mL
same,MIC (μg/mL) C. diversus,"[7]; C. diversus, 10 h cultivation at 37° C., 5×10^5 CFU/mL",12.5 µg/mL
same,MIC (μg/mL) M. catarrhalis,"[8]; M. catarrhalis, 10 h cultivation at 37° C., 5×10^5 CFU/mL",50 µg/mL
same,MIC (μg/mL) P. mirabilis,"[9]; P. mirabilis, 10 h cultivation at 37° C., 5×10^5 CFU/mL",12.5 µg/mL
same,MIC (μg/mL) P. vulgaris,"[10]; P. vulgaris, 10 h cultivation at 37° C., 5×10^5 CFU/mL",50 µg/mL
same,MIC (μg/mL) S. marcescens,"[11]; S. marcescens, 10 h cultivation at 37° C., 5×10^5 CFU/mL",12.5 µg/mL
PRT1326 (AINACEISNGGCSAKADCKRTTPGRRVCTCKAGYTGDGIVCL; listed as Homo sapiens),MIC,[1],50 µg/mL
same,MIC against E. coli BL21,[2]; [12],12.5 µg/mL
same,MIC against P. aeruginosa,[3]; [13],50 µg/mL
same,MIC against K. pneumonia,[4]; [13],12.5 µg/mL
same,MIC against E. cloacae,[5]; [13],50 µg/mL
same,MIC against A. hydrophila,[6]; [13],12.5 µg/mL
same,MIC against C. diversus,[7]; [13],50 µg/mL
same,MIC against M. catarrhalis,[8]; [13],25 µg/mL
same,MIC against P. mirabilis,[9]; [13],12.5 µg/mL
same,MIC against P. vulgaris,[10]; [13],25 µg/mL
same,MIC against S. marcescens,[11]; [13],50 µg/mL
PRT1058 (DIDECQLGEHSCGENASCTNTEGGYTCMCAGRLSEPGLICP; listed as Homo sapiens),MIC,[1],12.5 µg/mL
same,MIC E. coli BL21,[2]; [14],25 µg/mL
same,MIC P. aeruginosa,[3]; [14],50 µg/mL
same,MIC K. pneumonia,[4]; [14],25 µg/mL
same,MIC E. cloacae,[5]; [14],12.5 µg/mL
same,MIC A. hydrophila,[6]; [14],50 µg/mL
same,MIC C. diversus,[7]; [14],12.5 µg/mL
same,MIC M. catarrhalis,[8]; [14],50 µg/mL
same,MIC P. mirabilis,[9]; [14],12.5 µg/mL
same,MIC P. vulgaris,[10]; [14],50 µg/mL
same,MIC S. marcescens,[11]; [14],12.5 µg/mL
PRT1356 (KEQRCPSDCHGQGRCVDGQCICHEGFTGLDCG; listed as Homo sapiens),MIC,[1],12.5 µg/mL
same,MIC against E. coli BL21,"[2]; E. coli BL21, 5×10^5 CFU/mL, 10 h cultivation at 37° C.",50 µg/mL
same,MIC against P. aeruginosa,[3]; [15],12.5 µg/mL
same,MIC against K. pneumonia,[4]; [15],50 µg/mL
same,MIC against E. cloacae,[5]; [15],25 µg/mL
same,MIC against A. hydrophila,[6]; [15],25 µg/mL
same,MIC against C. diversus,[7]; [15],12.5 µg/mL
same,MIC against M. catarrhalis,[8]; [15],25 µg/mL
same,MIC against P. mirabilis,[9]; [15],50 µg/mL
same,MIC against P. vulgaris,[10]; [15],25 µg/mL
same,MIC against S. marcescens,[11]; [15],12.5 µg/mL
PRT949 (FVDVCPQMPCLNGGTCAVASNMPDGFICRCPPGFSGARCQ; listed as Homo sapiens),MIC,[1],12.5 µg/mL
same,MIC,"[2]; E. coli BL21, 10 h cultivation at 37° C.",25 µg/mL
same,MIC,"[3]; P. aeruginosa, 10 h cultivation at 37° C.",50 µg/mL
same,MIC,"[4]; K. pneumonia, 10 h cultivation at 37° C.",25 µg/mL
same,MIC,"[5]; E. cloacae, 10 h cultivation at 37° C.",12.5 µg/mL
same,MIC,"[6]; A. hydrophila, 10 h cultivation at 37° C.",50 µg/mL
same,MIC,"[7]; C. diversus, 10 h cultivation at 37° C.",12.5 µg/mL
same,MIC,"[8]; M. catarrhalis, 10 h cultivation at 37° C.",25 µg/mL
same,MIC,"[9]; P. mirabilis, 10 h cultivation at 37° C.",50 µg/mL
same,MIC,"[10]; P. vulgaris, 10 h cultivation at 37° C.",12.5 µg/mL
same,MIC,"[11]; S. marcescens, 10 h cultivation at 37° C.",25 µg/mL
